Measurements reported in the supplement of paper PMC11451515.

Tested on: SEM cells
Assay: cell viability relative to DMSO control; higher = less cytotoxic
Settings: 48 h
In short: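 Viability, reported as a per-plate percentage of DMSO wells with cell-free wells as background, came from CellTiter-Glo One luminescence. Reading took place after 48 h at 37°C. Before that, NOMO1 or SEM (500 cells/well) or P12-Ichikawa (1000 cells/well) leukemia cells, adapted for at least four passages in each medium, were seeded in 1536-well plates (5 μl) and pin-dosed with library compounds in DMSO, 47 μM to 0.79 nM over 11 threefold points.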

[1] = HPLM + 10% dialyzed FBS, 0.000781 µM
[2] = HPLM + 10% dialyzed FBS, 0.00234 µM
[3] = HPLM + 10% dialyzed FBS, 0.00702 µM
[4] = HPLM + 10% dialyzed FBS, 0.0211 µM
[5] = HPLM + 10% dialyzed FBS, 0.0632 µM
[6] = HPLM + 10% dialyzed FBS, 0.19 µM
[7] = HPLM + 10% dialyzed FBS, 0.569 µM
[8] = HPLM + 10% dialyzed FBS, 1.71 µM
[9] = HPLM + 10% dialyzed FBS, 5.12 µM
[10] = HPLM + 10% dialyzed FBS, 15.4 µM
[11] = HPLM + 10% dialyzed FBS, 46.1 µM
[12] = RPMI 5 mM glucose + 10% dialyzed FBS, 0.000781 µM
[13] = RPMI 5 mM glucose + 10% dialyzed FBS, 0.00234 µM
[14] = RPMI 5 mM glucose + 10% dialyzed FBS, 0.00702 µM
[15] = RPMI 5 mM glucose + 10% dialyzed FBS, 0.0211 µM
[16] = RPMI 5 mM glucose + 10% dialyzed FBS, 0.0632 µM
[17] = RPMI 5 mM glucose + 10% dialyzed FBS, 0.19 µM
[18] = RPMI 5 mM glucose + 10% dialyzed FBS, 0.569 µM
[19] = RPMI 5 mM glucose + 10% dialyzed FBS, 1.71 µM
[20] = RPMI 5 mM glucose + 10% dialyzed FBS, 5.12 µM
[21] = RPMI 5 mM glucose + 10% dialyzed FBS, 15.4 µM
[22] = RPMI 5 mM glucose + 10% dialyzed FBS, 46.1 µM
[23] = RPMI 5 mM glucose + 10% FBS, 0.000781 µM
[24] = RPMI 5 mM glucose + 10% FBS, 0.00234 µM
[25] = RPMI 5 mM glucose + 10% FBS, 0.00702 µM
[26] = RPMI 5 mM glucose + 10% FBS, 0.0211 µM
[27] = RPMI 5 mM glucose + 10% FBS, 0.0632 µM
[28] = RPMI 5 mM glucose + 10% FBS, 0.19 µM
[29] = RPMI 5 mM glucose + 10% FBS, 0.569 µM
[30] = RPMI 5 mM glucose + 10% FBS, 1.71 µM
[31] = RPMI 5 mM glucose + 10% FBS, 5.12 µM
[32] = RPMI 5 mM glucose + 10% FBS, 15.4 µM
[33] = RPMI 5 mM glucose + 10% FBS, 46.1 µM

Structure (SMILES)	cell viability [1]	cell viability [2]	cell viability [3]	cell viability [4]	cell viability [5]	cell viability [6]	cell viability [7]	cell viability [8]	cell viability [9]	cell viability [10]	cell viability [11]	cell viability [12]	cell viability [13]	cell viability [14]	cell viability [15]	cell viability [16]	cell viability [17]	cell viability [18]	cell viability [19]	cell viability [20]	cell viability [21]	cell viability [22]	cell viability [23]	cell viability [24]	cell viability [25]	cell viability [26]	cell viability [27]	cell viability [28]	cell viability [29]	cell viability [30]	cell viability [31]	cell viability [32]	cell viability [33]
O=C(c1ccc(Nc2nccc(-c3cc4ccccc4s3)n2)cc1)N1CCC(N2CCCC2)CC1	103%	107%	108%	110%	102%	104%	99.3%	82.4%	65.2%	10.8%	2.34%	105%	120%	98.2%	118%	106%	114%	108%	97.9%	69.3%	28.2%	2.16%											
Cc1cnc(-c2cc(N3CCN(C(=O)CC[S+](C)(=O)[O-])CC3)ncc2Cl)c(C)c1	103%	102%	118%	119%	128%	122%	124%	130%	127%	125%	141%	112%	115%	107%	133%	125%	132%	124%	141%	155%	143%	139%	115%	151%	119%	116%	118%	136%	135%	140%	140%	142%	136%
CC(C)C(=O)Oc1ccc(CO)cc1[C@H](CCN(C(C)C)C(C)C)c1ccccc1	34.1%	81.6%	97.9%	80.4%	74.6%	83.3%	82.8%	81%	82.3%	76.2%	72.4%	35.5%	91.9%	92.2%	95.3%	74.9%	89.4%	97.8%	85.7%	114%	96.2%	99.8%	32.5%	92.1%	91.8%	99.3%	74.4%	92.5%	81.7%	67.5%	101%	80.3%	89.5%
COC1=CC=C(C=C1)C/2=C/OC3=C(C(=CC(=C3)O)O)C2=O	108%	124%	110%	95.9%	115%	114%	125%	124%	125%	131%	75.2%	98.7%	115%	122%	77.4%	133%	130%	132%	138%	143%	145%	132%	90.7%	92.9%	101%	74.8%	103%	100%	108%	106%	124%	114%	98.2%
